Measured values published in ChEMBL document CHEMBL5036306 (J Med Chem, 2021).
Calls of active or inactive are those of the source. The calls are words filed in the database; no cut-off is given here.

Key:
[1] = Antioxidant activity of compound assessed as trolox equivalent of AAPH radical scavenging activity at 2 to 4 uM preincubated for 15 mins followed by AAPH addition and measured every 2 mins for 90 mins by ORAC-fluorescein assay; type: functional; settings: dose 2-4 µM, time 105.0 min
[2] = Antioxidant activity assessed as DPPH radical scavenging activity incubated for 30 mins under dark condition by microplate reader based assay; type: functional
[3] = molecular target: T1, Histone deacetylase 3 (Homo sapiens, UniProt O15379); experiment: Inhibition of recombinant HDAC3 (unknown origin) at 1 uM using Boc-Lys(Ac)-AMC as substrate preincubated for 1 hr followed by substrate addition and measured after 2 hrs by fluorescence based assay relative to control; settings: time 3.0 hrs
[4] = system: Mus musculus; experiment: Anti-alzheimer activity against amyloid beta (25 to 35) induced working memory deficit mouse assessed as increase in spontaneous alternation performance by measuring total number of arm entries at 0.3 mg/kg, ip administered for 7 days and measured on day 8 in presence of melatonin and ferulic acid by Y-maze test; type: functional, organism-based; settings: time 8.0 day
[5] = Metal chelating activity assessed as compound-Cu2+ complex formation at 10 to 200 uM incubated for 2 mins followed by pyrocatechol violet addition and further incubated for 10 mins by microplate reader based assay; settings: dose 10-200 µM, time 12.0 min
[6] = Metal chelating activity assessed as Fe2+ -ferrozoine complex formation at 10 to 200 uM preincubated for 2 mins followed by ferrozine addition and further incubated for 10 mins by microplate reader based assay; settings: dose 10-200 µM, time 12.0 min
[7] = Toxicity in mouse model of Alzheimer's disease assessed as drug tolerability at 0.3 to 3 mg/kg, ip measured after 7 days; type: organism-based; settings: in vivo, 168 h, dose 0.3-3 mg/kg, time 7 day
[8] = system: Mus musculus; experiment: Anti-alzheimer activity against amyloid beta (25 to 35) induced working memory deficit in mouse assessed as increase in spontaneous alternation performance at 1 mg/kg, ip administered for 7 days and measured on day 8 by Y-maze test; type: functional, organism-based; settings: time 7.0 day
[9] = system: Mus musculus; experiment: Anti-alzheimer activity against amyloid beta (25 to 35) induced working memory deficit mouse assessed as step-through latency time to enter dark compartment at 1 mg/kg, ip administered for 7 days and measured on day 9 days in presence of melatonin and ferulic acid by passive avoidance test; type: functional, organism-based; settings: time 7.0 day
[10] = system: Mus musculus; experiment: Cognitive enhancing effect in mouse model of Alzheimer's disease at 1 mg/kg; type: functional, organism-based
[11] = system: Mus musculus; experiment: Anti-alzheimer activity against amyloid beta (25 to 35) induced working memory deficit mouse assessed as step-through latency time to enter dark compartment at 0.3 to 3 mg/kg, ip administered for 7 days and measured on day 9 days by passive avoidance test; type: functional, organism-based; settings: dose 0.3-3 mg/kg, time 9.0 day
[12] = system: Mus musculus; experiment: Neuroprotection against mouse model of Alzheimer's disease at 1 mg/kg; type: functional, organism-based
[13] = Metal chelating activity compound-Zn2+ complex formation at 10 to 200 uM preincubated for 2 mins followed by di-thizone addition by microplate reader based assay; settings: dose 10-200 µM
[14] = Neurotoxicity in mouse HT-22 cells assessed as cell survival at 10 uM incubated for 48 hrs by MTT assay; type: cell-based; settings: for viability at 48 h, 10 µM: HT-22 cells, read-out: Activity
[15] = molecular target: T2, Protein deacetylase HDAC6 (Homo sapiens) (UniProt Q9UBN7); experiment: Inhibition of recombinant HDAC6 (unknown origin) at 1 uM using Boc-Lys(Ac)-AMC as substrate preincubated for 1 hr followed by substrate addition and measured after 2 hrs by fluorescence based assay; settings: time 3.0 hrs
T2 sequence (whole entry): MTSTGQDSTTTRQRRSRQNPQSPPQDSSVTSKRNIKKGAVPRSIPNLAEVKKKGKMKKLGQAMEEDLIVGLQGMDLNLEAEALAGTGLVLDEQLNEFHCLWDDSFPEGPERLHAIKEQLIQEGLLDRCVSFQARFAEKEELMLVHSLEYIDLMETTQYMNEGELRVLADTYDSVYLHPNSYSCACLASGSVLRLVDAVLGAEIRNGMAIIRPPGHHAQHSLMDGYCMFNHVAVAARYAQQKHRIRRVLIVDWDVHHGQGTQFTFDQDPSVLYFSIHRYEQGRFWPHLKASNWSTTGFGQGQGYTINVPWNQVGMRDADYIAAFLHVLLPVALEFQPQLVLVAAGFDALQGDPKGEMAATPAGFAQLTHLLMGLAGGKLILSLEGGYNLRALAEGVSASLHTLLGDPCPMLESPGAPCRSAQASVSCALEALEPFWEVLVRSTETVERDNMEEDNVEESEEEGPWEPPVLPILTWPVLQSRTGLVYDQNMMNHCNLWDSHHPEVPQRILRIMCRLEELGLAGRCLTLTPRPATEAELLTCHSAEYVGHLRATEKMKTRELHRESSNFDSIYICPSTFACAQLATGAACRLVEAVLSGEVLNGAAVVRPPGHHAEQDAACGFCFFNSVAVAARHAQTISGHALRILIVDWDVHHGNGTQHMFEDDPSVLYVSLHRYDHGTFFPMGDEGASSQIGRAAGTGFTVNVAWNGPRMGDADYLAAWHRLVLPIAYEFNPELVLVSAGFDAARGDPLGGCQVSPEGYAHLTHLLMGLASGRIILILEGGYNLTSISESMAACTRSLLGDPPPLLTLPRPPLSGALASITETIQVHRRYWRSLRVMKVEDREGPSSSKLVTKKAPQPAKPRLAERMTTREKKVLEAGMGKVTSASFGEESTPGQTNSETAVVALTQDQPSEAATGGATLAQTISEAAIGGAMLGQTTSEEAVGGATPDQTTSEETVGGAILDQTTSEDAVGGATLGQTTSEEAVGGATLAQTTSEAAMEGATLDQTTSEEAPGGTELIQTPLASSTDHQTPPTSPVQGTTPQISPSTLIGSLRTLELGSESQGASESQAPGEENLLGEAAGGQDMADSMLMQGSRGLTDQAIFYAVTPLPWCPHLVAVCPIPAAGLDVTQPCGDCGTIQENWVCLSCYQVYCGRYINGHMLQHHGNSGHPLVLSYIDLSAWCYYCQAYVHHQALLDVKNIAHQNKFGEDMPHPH

[16] = molecular target: T3, Protein deacetylase HDAC6 (Homo sapiens, UniProt Q9UBN7); experiment: Inhibition of recombinant HDAC6 (unknown origin) using Boc-Lys(acetyl)-AMC as substrate preincubated for 1 hr followed by substrate addition and measured after 2 hrs by fluorescence based assay
T3 sequence (Q9UBN7 whole entry): T2 sequence (whole entry)

[17] = molecular target: T1, Histone deacetylase 3; experiment: Inhibition of recombinant HDAC3 (unknown origin) using Boc-Lys(acetyl)-AMC as substrate preincubated for 1 hr followed by substrate addition and measured after 2 hrs by fluorescence based assay
[18] = species on record: Homo sapiens; experiment: Selectivity ratio of IC50 for recombinant HDAC3 (unknown origin) to IC50 for recombinant HDAC6 (unknown origin)
[19] = system: Mus musculus; experiment: Anti-alzheimer activity against amyloid beta (25 to 35) induced working memory deficit mouse assessed as increase in spontaneous alternation performance by measuring total number of arm entries at 0.16 mg/kg, ip administered for 7 days and measured on day 8 by Y-maze test; type: functional, organism-based; settings: time 8.0 day
[20] = system: Mus musculus; experiment: Anti-alzheimer activity against amyloid beta (25 to 35) induced working memory deficit mouse assessed as step-through latency time to enter dark compartment at 1 mg/kg, ip administered for 7 days and measured on day 9 days by passive avoidance test; type: functional, organism-based; settings: time 9.0 day
[21] = system: HT-22; experiment: Neuroprotection against iodoacetic acid-induced ATP depletion in mouse HT-22 cells assessed as cell viability at 50 uM; type: functional, cell-based
[22] = system: HT-22; experiment: Neuroprotection against glutamate-induced oxytosis in mouse HT-22 cells assessed as cell viability at 50 uM; type: functional, cell-based

T1 sequence (O15379 whole entry): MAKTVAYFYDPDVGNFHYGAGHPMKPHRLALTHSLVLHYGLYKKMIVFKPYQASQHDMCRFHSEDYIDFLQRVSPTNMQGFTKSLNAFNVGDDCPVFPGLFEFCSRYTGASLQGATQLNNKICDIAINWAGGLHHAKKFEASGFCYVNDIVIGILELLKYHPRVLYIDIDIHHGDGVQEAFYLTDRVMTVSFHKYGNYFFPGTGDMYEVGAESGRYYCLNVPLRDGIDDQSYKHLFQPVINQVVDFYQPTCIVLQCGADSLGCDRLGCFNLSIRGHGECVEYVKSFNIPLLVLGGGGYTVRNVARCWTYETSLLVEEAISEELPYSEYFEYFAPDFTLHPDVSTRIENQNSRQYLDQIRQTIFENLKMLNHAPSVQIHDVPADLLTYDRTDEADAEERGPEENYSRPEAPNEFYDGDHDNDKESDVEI

SMILES	ORAC antioxidant capacity (Trolox equivalents) [1]	EC50 [2] [µM]	IC50 [16] [µM]	IC50 [17] [µM]	Ratio IC50 [18]	other results
COc1ccc2[nH]cc(CCNC(=O)CCCCC(=O)NO)c2c1	3	292	–	–	–	inhibition [3]: 25%
O=C(CCCCCCNC(=O)c1cnc(N(c2ccccc2)c2ccccc2)nc1)NO [RICOLINOSTAT]	0.5	255	–	–	–	Activity [4]: inactive; Activity [5]: Active; Activity [6]: Active; Activity [7]: Non-Toxic; Activity [8]: Active; Activity [9]: inactive; Activity [10]: Active; Activity [11]: Active; Activity [12]: Active; Activity [13]: Active; Activity ([14]; ht-22, 48 h, 10 µM): Toxic
COc1ccc2[nH]cc(CCNC(=O)c3ccc(C(=O)NO)cc3)c2c1	2.4	62	–	–	–	inhibition [15]: 88%; inhibition [3]: 87%
COc1ccc2c(c1)c(CCNC(C)=O)cn2CCCCCC(=O)NO	1.6	262	0.0523	0.494	9	–
COc1ccc2[nH]cc(CCNCc3ccc(C(=O)NO)cc3)c2c1	3	66.7	–	–	–	inhibition [15]: 43%; inhibition [3]: 26%
COc1ccc2[nH]cc(CCNC(C)=O)c2c1 [MELATONIN]	2	> 6000	–	–	–	Activity [19]: inactive; Activity [20]: inactive
COc1ccc2[nH]cc(CCNC(=O)c3ccc(/C=C/C(=O)NO)cc3)c2c1	2	25.2	0.0191	0.0036	< 1	viability at 48 h, 10 µM [14]: 60%
COc1ccc2[nH]cc(CCN(Cc3ccc(/C=C/C(=O)NO)cc3)C(=O)/C=C/c3ccc(O)c(OC)c3)c2c1	1	8.5	0.0256	0.163	6	Activity [21]: Active; Activity [22]: Active
COc1ccc2[nH]cc(CCNC(=O)CN(CCCCCC(=O)NO)C(=O)/C=C/c3ccc(O)c(OC)c3)c2c1	3.2	19.1	0.057	0.121	2	–
COc1ccc2[nH]cc(CCNC(=O)/C=C/c3ccc(C(=O)NO)cc3)c2c1	2	65	0.0337	0.0197	< 1	–
COc1ccc2[nH]cc(CCN(CCCCCC(=O)NO)C(=O)/C=C/c3ccc(O)c(OC)c3)c2c1	2.8	8.9	0.353	0.811	2	–
COc1ccc2[nH]cc(CCNCc3ccc(/C=C/C(=O)NO)cc3)c2c1	2.4	17.1	0.0214	0.0051	< 1	viability at 48 h, 10 µM [14]: 50%
COc1cc(/C=C/C(=O)O)ccc1O [FERULATE]	3.1	13.7	–	–	–	–
COc1ccc2[nH]cc(CCNC(=O)CN(Cc3ccc(/C=C/C(=O)NO)cc3)C(=O)/C=C/c3ccc(O)c(OC)c3)c2c1	1.2	8.3	0.0532	0.108	2	–
COc1ccc2c(c1)c(CCNC(C)=O)cn2Cc1ccc(/C=C/C(=O)NO)cc1	1.4	31.4	0.0688	0.182	3	–
COc1ccc2[nH]cc(CCNC(=O)CN(Cc3ccc(C(=O)NO)cc3)C(=O)/C=C/c3ccc(O)c(OC)c3)c2c1	1.6	15.2	–	–	–	inhibition [15]: 19%
